Patent publication US20170081368A1, “PEPTIDES AS OXYTOCIN AGONISTS” (Hoffmann-La Roche Inc., priority 2014, published 2017)
*1 amine or outer side, *2 acyl side, *3 side chain or, on linkers, in order; H or OH if unused. Where a SMILES comes first, the peptide text is derived from it. Bridges are numbered along the chain shown (N, C = ends). [ ]: non-standard residue; d: D form. Hcy(O2-CH2CH2CO) = O=C([C@H](CCS(=O)(=O)CCC(=O)[*:3])N[*:1])[*:2]; αMeL = CC(C)C[C@](C)(N)C(=O)O; Chg = N[C@H](C(=O)O)C1CCCCC1; NcPrGly = O=C(O)CNC1CC1

Experiments:
Format in all cases: cell-based
[1] = molecular target: T1, human Oxytocin (OTR) receptor (Homo sapiens, UniProt P30559); assay: Calcium flux assay (FLIPR) in CHO cells expressing human OTR; settings: for Emax: CHO, maximum response normalized to endogenous full agonist = 100%, read-out: hOT efficacy; for EC50: agonist mode, CHO cells, calcium flux FLIPR, read-out: hOT EC50
T1 construct: expressed in transfected cells
T1 sequence (P30559 1-389): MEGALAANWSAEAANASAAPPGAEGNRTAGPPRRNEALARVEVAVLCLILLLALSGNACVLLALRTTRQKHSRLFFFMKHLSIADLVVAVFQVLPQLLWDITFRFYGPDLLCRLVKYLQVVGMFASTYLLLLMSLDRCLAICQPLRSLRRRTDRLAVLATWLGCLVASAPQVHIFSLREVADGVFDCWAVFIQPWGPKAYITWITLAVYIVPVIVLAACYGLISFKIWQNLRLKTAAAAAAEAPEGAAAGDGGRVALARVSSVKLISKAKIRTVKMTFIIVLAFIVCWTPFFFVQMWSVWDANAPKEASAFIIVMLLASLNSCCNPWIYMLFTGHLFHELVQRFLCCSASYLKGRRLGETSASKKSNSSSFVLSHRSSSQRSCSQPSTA
Excerpt: (§1) Chines Hamster Ovary (CHO) cells were transfected with expression plasmids encoding either the human Vla, the human Oxytocin (OTR) or the humanV2 receptor, the later in combination with the chimeric Gqs5 G protein to redirect the signal to Calcium flux. Stable cells were cloned by limiting dilution to yield monoclonal cell lines expressing either human Vla, human V2+Gqs5 or human OTR receptors and selected based on functional responses detected on a fluorometric imaging plate reader (FLIPR) detecting Calcium flux in the cell after receptor activation. The stable cell lines were grown in F-12 K Nutrient Mixture (Kaighns Modification), containing 10% foetal bovine serum (FBS), 1% penicillin-streptomycin, 1% L-glutamate, 200 ug/ml Geneticin at 37° C. in a 10% CO2 incubator at 95% humidity.
(§2) Calcium Flux Assays Using Fluorescent Imaging (Fluorometric Imaging Plate Reader, FLIPR)
(§3) On the afternoon before the assay, cells were plated at a density of 50,000 cells/well into black 96 well plates with clear bottoms to allow cell inspection and fluorescence measurements from the bottom of each well. The density of cells was sufficient to yield a confluent monolayer the next day. Hanks balanced salt solution, without phenol red, containing 20 mM HEPES (pH 7.3) and 2.5 mM probenecid (assay buffer) was prepared fresh for each experiment. Compound dilutions were made using a Beckman Biomek 2000 laboratory automation workstation, in assay buffer containing 1% DMSO. The dye-loading buffer consisted of a final concentration of 2 μM Fluo-4-AM (dissolved in DMSO and pluronic acid) in assay buffer. The existing culture media was removed from the wells and 100 μl of the dye-loading buffer was added to each well and incubated for approximately 60 min at 37° C. in a 5% CO2 incubator at 95% humidity. Once dye-loaded, the cells were washed thoroughly on an Embla cell washer with the assay buffer to remove any unincorporated dye. Exactly 100 μl assay buffer was left in each well.
(§4) Each 96 well plate containing dye-loaded cells was placed into the FLIPR machine and the laser intensity set to a suitable level to detect low basal fluorescence. To test compounds as agonists, 25 μl diluted compound was added to the plate 10 seconds into the fluorescent measurements and fluorescent response was recorded for 5 minutes. The fluorescence data was normalized to the endogenous full agonist dose-response set at 100% for the maximum response and 0% for the minimum. Each agonist concentration-response curve was constructed using a four parameter logistic equation with Microsoft Excel XLFit as follows: Y=Minimum+((Maximum−Minimum)/(1+10^(LogEC50−X)nH)), where y is the % normalized fluorescence, minimum is the minimum y, maximum is the maximum y, log EC50 is the log10 concentration which produces 50% of the maximum induced fluorescence, x is the log10 of the concentration of the agonist compound and H is the slope of the curve (the Hill Coefficient). The maximum value gives the efficacy of the agonist test compound in percentage. The concentration of agonist that produced a half-maximal response is represented by the EC50 value, the logarithm of which yielded the pEC50 value.

[2] = molecular target: T2, human V1a receptor (Homo sapiens, UniProt P37288); assay: Calcium flux assay (FLIPR) in CHO cells expressing human V1a; settings: for EC50: agonist mode, CHO cells, calcium flux FLIPR, read-out: hV1a EC50
T2 construct: expressed in transfected cells
Excerpt: as §1, §2, §3, §4

[3] = molecular target: T3, human V2 receptor (Homo sapiens, UniProt P30518); assay: Calcium flux assay (FLIPR) in CHO cells expressing human V2+Gqs5; settings: for Emax: CHO, maximum response normalized to endogenous full agonist = 100%, read-out: hV2 efficacy; for EC50: agonist mode, CHO cells with chimeric Gqs5, calcium flux FLIPR, read-out: hV2 EC50
T3 construct: expressed in transfected cells
Excerpt: as §1, §2, §3, §4

T2 sequence (P37288 whole entry): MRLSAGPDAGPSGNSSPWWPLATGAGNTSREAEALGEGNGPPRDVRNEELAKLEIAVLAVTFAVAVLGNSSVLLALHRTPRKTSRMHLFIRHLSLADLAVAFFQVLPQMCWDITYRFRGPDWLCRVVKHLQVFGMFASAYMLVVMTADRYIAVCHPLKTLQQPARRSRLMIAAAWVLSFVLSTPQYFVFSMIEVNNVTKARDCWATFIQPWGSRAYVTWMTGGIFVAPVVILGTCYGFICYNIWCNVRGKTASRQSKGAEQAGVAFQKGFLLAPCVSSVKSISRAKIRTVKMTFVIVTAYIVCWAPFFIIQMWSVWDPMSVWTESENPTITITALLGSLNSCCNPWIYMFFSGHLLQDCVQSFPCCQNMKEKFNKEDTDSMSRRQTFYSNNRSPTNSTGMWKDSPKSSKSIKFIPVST
T3 sequence (P30518 whole entry): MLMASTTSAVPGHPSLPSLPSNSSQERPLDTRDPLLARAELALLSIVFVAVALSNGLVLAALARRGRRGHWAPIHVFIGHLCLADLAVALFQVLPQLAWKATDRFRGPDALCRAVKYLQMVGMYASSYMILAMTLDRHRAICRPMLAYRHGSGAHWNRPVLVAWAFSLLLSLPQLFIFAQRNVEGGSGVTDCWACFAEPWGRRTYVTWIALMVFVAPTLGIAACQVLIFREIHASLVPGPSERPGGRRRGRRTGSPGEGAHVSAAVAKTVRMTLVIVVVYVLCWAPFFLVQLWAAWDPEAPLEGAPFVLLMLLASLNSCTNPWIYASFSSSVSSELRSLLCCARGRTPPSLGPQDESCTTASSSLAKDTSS

Compound | Emax [1] | EC50 [1] | EC50 [2] | Emax [3] | EC50 [3] | hV1a efficacy ([2]; maximum response normalized to endogenous full agonist = 100%)
CC[C@H](C)[C@@H]1NC(=O)[C@H](Cc2ccc(O)cc2)NC(=O)CCS(=O)(=O)CC[C@@H](C(=O)N2CCC[C@H]2C(=O)N[C@@H](CC(C)C)C(=O)NCC(N)=O)NC(=O)[C@H](CC(N)=O)NC(=O)[C@H](CCC(N)=O)NC1=O [Example 1] (HELM PEPTIDE1{Y.I.Q.N.[O=C([C@H](CCS(=O)(=O)CCC(=O)[*:3])N[*:1])[*:2]].P.L.G.[am]}$PEPTIDE1,PEPTIDE1,1:R1-5:R3$$$V2.0) | 120% | 0.0008 µM | 1.63 µM | 101% | 2.98 µM | 
CC[C@H](C)[C@@H]1NC(=O)[C@H](Cc2ccc(O)cc2)NC(=O)CCS(=O)(=O)CC[C@@H](C(=O)N(C)CC(=O)N[C@@H](CC(C)C)C(=O)NCC(N)=O)NC(=O)[C@H](CC(N)=O)NC(=O)[C@H](CCC(N)=O)NC1=O [Example 2] (HELM PEPTIDE1{Y.I.Q.N.[O=C([C@H](CCS(=O)(=O)CCC(=O)[*:3])N[*:1])[*:2]].[Sar].L.G.[am]}$PEPTIDE1,PEPTIDE1,1:R1-5:R3$$$V2.0) | 107% | 0.0008 µM | > 27 µM | 86% | 3.98 µM | 
CC[C@H](C)[C@@H]1NC(=O)[C@H](Cc2ccc(O)cc2)NC(=O)CCS(=O)(=O)CC[C@@H](C(=O)N(CC(=O)N[C@@](C)(CC(C)C)C(=O)NCC(N)=O)C2CC2)NC(=O)[C@H](CC(N)=O)NC(=O)[C@H](CCC(N)=O)NC1=O [Example 28] (YIQN[Hcy(O2-CH2CH2CO)][NcPrGly][αMeL]G-NH2; lactam N-5) | 105% | 0.0007 µM | > 27 µM | 129% | 9.42 µM | 

These reach a lower EC50 [1]. Values come first.

Emax [1] | EC50 [1] | EC50 [2] | Emax [3] | EC50 [3] | hV1a efficacy ([2]; maximum response normalized to endogenous full agonist = 100%) | Compound
125% | 0.0005 µM | > 27 µM | 110% | 3.73 µM |  | CC[C@H](C)[C@@H]1NC(=O)[C@H](Cc2ccc(O)cc2)NC(=O)CCS(=O)(=O)CC[C@@H](C(=O)N(CC(=O)N[C@@H](CC(C)C)C(=O)NCC(N)=O)C2CC2)NC(=O)[C@H](CC(N)=O)NC(=O)[C@H](CCC(N)=O)NC1=O [Example 27] (HELM PEPTIDE1{Y.I.Q.N.[O=C([C@H](CCS(=O)(=O)CCC(=O)[*:3])N[*:1])[*:2]].[O=C(CN(C1CC1)[*:1])[*:2]].L.G.[am]}$PEPTIDE1,PEPTIDE1,1:R1-5:R3$$$V2.0)
120% | 0.00026 µM | 2.23 µM | 155% | 2.36 µM | 38% | CC[C@H](C)[C@@H]1NC(=O)[C@H](Cc2ccc(O)cc2)NC(=O)CCS(=O)(=O)CC[C@@H](C(=O)N(CC(=O)N[C@H](C(=O)NCC(N)=O)C2CCCCC2)C2CC2)NC(=O)[C@H](CC(N)=O)NC(=O)[C@H](CCC(N)=O)NC1=O [Example 32] (YIQN[Hcy(O2-CH2CH2CO)][NcPrGly][Chg]G-NH2; lactam N-5)
